Literature values in article PMC7904743, “WIDOCK: a reactive docking protocol for virtual screening of covalent inhibitors” (Journal of Computer-Aided Molecular Design, 2021).
Like-named read-outs stand apart in the source and are kept apart here.

Legend:
NUDT7 = conditions: protein labeling at 200 μM; experimental actives if % labeling higher than 50%; cited from earlier work
OTUB2 = conditions: experimental actives if % labeling higher than 50%, cited from earlier work
[1] = thiol reactivity, cited from earlier work
[2] = natural log of average rate constant k
[3] = natural logarithm of average rate constant
[4] = natural log of average rate constant
[5] = natural log of average kinetic rate constant

Row | Structure (SMILES) | NUDT7 % labeling (NUDT7) | OTUB2 % labeling (OTUB2) | ln(avg k) [1, 2] | ln(avg k) [1, 3] | ln(avg k) [1, 4] | OTUB2 % labeling (OTUB2; OTUB2 protein labeling) | ln(avg k) [1, 5]
1 | O=C(CCl)NCc1ccco1 [PCM-0102671, O=C(CCl)NCc1ccco1] | 0% | 35% | -16.464 | -16.464 |  |  | 
2 | CN(Cc1ccco1)C(=O)CCl [PCM-0102672, CN(Cc1ccco1)C(=O)CCl] | 10% | 0% | -15.763 | -15.763 |  |  | 
3 | O=C(CCl)N1CCCC(C(F)(F)F)C1 (centres unmarked) [PCM-0102676, O=C(CCl)N1CCCC(C(F)(F)F)C1] | 14% | 0% | -15.616 | -15.616 |  |  | 
4 | CN(Cc1cc(Cl)cc(Cl)c1)C(=O)CCl [PCM-0102678, CN(Cc1cc(Cl)cc(Cl)c1)C(=O)CCl] | 45% | 0% | -15.789 | -15.789 |  |  | 
5 | O=C(CCl)N1CCCC1c1ccsc1 (centres unmarked) [PCM-0102693, O=C(CCl)N1CCCC1c1ccsc1] | 20% | 0% | -15.634 | -15.634 |  |  | 
6 | O=C(CCl)Nc1cccc(C(=O)O)c1 [PCM-0102696, O=C(CCl)Nc1cccc(C(=O)O)c1] | 0% | 11% | -16.586 | -16.586 |  |  | 
7 | CC1CC(=O)Nc2ccccc2N1C(=O)CCl (centres unmarked) [PCM-0102697, CC1CC(=O)Nc2ccccc2N1C(=O)CCl] | 22% | 0% | -15.686 | -15.686 |  |  | 
8 | O=C(CCl)Nc1nc2ccccc2s1 [PCM-0102698, O=C(CCl)Nc1nc2ccccc2s1] | 83% | 7% | -15.845 | -15.845 |  |  | 
9 | Cc1cc(NC(=O)CCl)n(-c2ccccc2C)n1 [PCM-0102699, Cc1cc(NC(=O)CCl)n(-c2ccccc2C)n1] | 0% | 0% | -15.949 | -15.949 |  |  | 
10 | N#Cc1ccc(Cl)cc1NC(=O)CCl [PCM-0102700, N#Cc1ccc(Cl)cc1NC(=O)CCl] | 40% | 17% | -16.148 | -16.148 |  |  | 
11 | CCCNC(=O)NC(=O)CCl [PCM-0102702, CCCNC(=O)NC(=O)CCl] | 0% | 22% | -16.357 | -16.357 |  |  | 
12 | CN(C(=O)CCl)C1CCCc2ccccc21 (centres unmarked) [PCM-0102703, CN(C(=O)CCl)C1CCCc2ccccc21] | 30% | 0% |  | -15.771 | -15.771 |  | 
13 | O=C(CCl)N1CCN(S(=O)(=O)c2ccc(Cl)cc2)CC1 [PCM-0102704, O=C(CCl)N1CCN(S(=O)(=O)c2ccc(Cl)cc2)CC1] | 25% | 0% |  | -15.137 | -15.137 |  | 
14 | O=C(CCl)NCC12CC3CC(CC(C3)C1)C2 [PCM-0102706, O=C(CCl)NCC12CC3CC(CC(C3)C1)C2] | 0% | 65% |  | -16.508 | -16.508 |  | 
15 | Cc1ccccc1CN(C)C(=O)CCl [PCM-0102707, Cc1ccccc1CN(C)C(=O)CCl] | 13% | 0% |  | -15.717 | -15.717 |  | 
16 | C=CCNC(=O)NC(=O)CCl [PCM-0102709, C=CCNC(=O)NC(=O)CCl] | 0% | 0% |  | -16.210 | -16.210 |  | 

Row | Structure (SMILES) | NUDT7 % labeling (NUDT7) | OTUB2 % labeling (OTUB2) | ln(avg k) [1, 2] | ln(avg k) [1, 3] | ln(avg k) [1, 4] | OTUB2 % labeling (OTUB2; OTUB2 protein labeling) | ln(avg k) [1, 5]
17 | CC(c1ccccc1)N1CCN(C(=O)CCl)CC1 (centres unmarked) [PCM-0102710, CC(c1ccccc1)N1CCN(C(=O)CCl)CC1] | 0% | 12% |  | -15.723 | -15.723 |  | 
18 | CN(CCC#N)C(=O)CCl [PCM-0102712, CN(CCC#N)C(=O)CCl] | 0% | 0% |  | -15.839 | -15.839 |  | 
19 | CN(CC1CC1)C(=O)CCl [PCM-0102714, CN(CC1CC1)C(=O)CCl] | 0% | 0% |  | -16.302 | -16.302 |  | 
20 | COc1cccc(C2CCCN2C(=O)CCl)c1 (centres unmarked) [PCM-0102716, COc1cccc(C2CCCN2C(=O)CCl)c1] | 68% | 9% |  | -15.631 | -15.631 |  | 
21 | O=C(CCl)NCc1ccc(F)cc1C(F)(F)F [PCM-0102733, O=C(CCl)NCc1ccc(F)cc1C(F)(F)F] | 6% | 33% |  | -16.673 | -16.673 |  | 
22 | COC(=O)C1(NC(=O)CCl)CCCCC1 [PCM-0102734, COC(=O)C1(NC(=O)CCl)CCCCC1] | 0% | 0% |  | -16.826 | -16.826 |  | 
23 | C#Cc1cccc(NC(=O)CCl)c1 [PCM-0102735, C#Cc1cccc(NC(=O)CCl)c1] | 0% |  |  |  | -17.384 | 9% | -17.384
24 | CC(C)(C)c1nnc(NC(=O)CCl)s1 [PCM-0102736, CC(C)(C)c1nnc(NC(=O)CCl)s1] | 0% |  |  |  | -15.861 | 0% | -15.861
25 | O=C(CCl)Nc1ccc2c(c1)OC(F)(F)O2 [PCM-0102738, O=C(CCl)Nc1ccc2c(c1)OC(F)(F)O2] | 0% |  |  |  | -15.810 | 41% | -15.810
26 | O=C(CCl)N1CCN(Cc2ccsc2)CC1 [PCM-0102739, O=C(CCl)N1CCN(Cc2ccsc2)CC1] | 7% |  |  |  | -15.640 | 0% | -15.640
27 | Cc1ccc(S(N)(=O)=O)cc1NC(=O)CCl [PCM-0102744, Cc1ccc(S(N)(=O)=O)cc1NC(=O)CCl] | 0% |  |  |  | -16.170 | 10% | -16.170
28 | O=C(CCl)N(C1=CCCCC1)C1CC1 [PCM-0102745, O=C(CCl)N(C1=CCCCC1)C1CC1] | 0% |  |  |  | -16.466 | 0% | -16.466
29 | O=C(CCl)Nc1oncc1-c1ccccc1 [PCM-0102746, O=C(CCl)Nc1oncc1-c1ccccc1] | 0% |  |  |  | -16.489 | 64% | -16.489
30 | CN(Cc1cccc(F)c1)C(=O)CCl [PCM-0102747, CN(Cc1cccc(F)c1)C(=O)CCl] | 0% |  |  |  | -16.175 | 0% | -16.175
31 | CC(C)N1CCC(NC(=O)CCl)CC1 [PCM-0102748, CC(C)N1CCC(NC(=O)CCl)CC1] | 0% |  |  |  | -15.792 | 0% | -15.792
32 | O=C(CCl)N1CCOCC1 [PCM-0102749, O=C(CCl)N1CCOCC1] | 0% |  |  |  | -17.466 | 0% | -17.466
